Converted amounts (≈) assume the structure as drawn.
Tests used:
Saccharomyces cerevisiae = assay: Antimicrobial activity against Saccharomyces cerevisiae after 24 hrs by microbroth dilution method; format: functional
[1] = Antimicrobial activity against Bacillus proteus ATCC 13315 after 24 hrs by microbroth dilution method; format: functional; details: ATCC 13315, 24 h
Escherichia coli [2] = assay: Antimicrobial activity against Escherichia coli DH52 after 24 hrs by microbroth dilution method; format: functional; details: DH52, 24 h
Micrococcus luteus = assay: Antimicrobial activity against Micrococcus luteus ATCC 4698 after 24 hrs by microbroth dilution method; format: functional; details: ATCC 4698, 24 h
Salmonella typhi = assay: Antimicrobial activity against Bacillus typhi after 24 hrs by microbroth dilution method; format: functional, Salmonella enterica subsp. enterica serovar Typhi; details: Salmonella enterica
Escherichia coli [3] = assay: Antimicrobial activity against Escherichia coli JM109 after 24 hrs by microbroth dilution method; format: functional; details: JM109, 24 h
Staphylococcus aureus [4] = assay: Antimicrobial activity against methicillin-resistant Staphylococcus aureus N315 after 24 hrs by microbroth dilution method; format: functional; details: N315, 24 h
Candida = assay: Antimicrobial activity against Candida mycoderma ATCC 9888 after 24 hrs by microbroth dilution method; format: functional; details: ATCC 9888, 24 h
Aspergillus flavus = assay: Antimicrobial activity against Aspergillus flavus ATCC 204304 after 24 hrs by microbroth dilution method; format: functional; details: ATCC 204304, 24 h
Bacillus spizizenii = assay: Antimicrobial activity against Bacillus subtilis ATCC 6633 after 24 hrs by microbroth dilution method; format: functional; details: ATCC 6633, 24 h
Candida albicans = assay: Antimicrobial activity against Candida albicans ATCC 10231 after 24 hrs by microbroth dilution method; format: functional; details: ATCC 10231, 24 h
Staphylococcus aureus [5] = assay: Antimicrobial activity against Staphylococcus aureus ATCC 25923 after 24 hrs by microbroth dilution method; format: functional; details: ATCC 25923, 24 h
Escherichia coli [6] = assay: Potency index, ratio of chloromycin MIC to compound MIC for antimicrobial activity against Escherichia coli DH52; format: functional

Structure (SMILES) | MIC (Saccharomyces cerevisiae) [µg/mL] | MIC [1] [µg/mL] | MIC (Escherichia coli [2]) [µg/mL] | MIC (Micrococcus luteus) [µg/mL] | MIC (Salmonella typhi) [µg/mL] | MIC (Escherichia coli [3]) [µg/mL] | MIC (Staphylococcus aureus [4]) [µg/mL] | MIC (Candida) [µg/mL] | MIC (Aspergillus flavus) [µg/mL] | MIC (Bacillus spizizenii) [µg/mL] | MIC (Candida albicans) [µg/mL] | MIC (Staphylococcus aureus [5]) [µg/mL] | Ratio (Escherichia coli [6])
CCCCCCCCn1c(Cn2cc(F)c(=O)[nH]c2=O)nc2ccccc21 | 32 (≈ 85.9 µM) | 512 (≈ 1370 µM) | 64 (≈ 172 µM) | 512 (≈ 1370 µM) | 512 (≈ 1370 µM) | 256 (≈ 687 µM) | 512 (≈ 1370 µM) | 64 (≈ 172 µM) | 32 (≈ 85.9 µM) | 512 (≈ 1370 µM) | 32 (≈ 85.9 µM) | 512 (≈ 1370 µM) | –
CCCCCCCCCCCCn1c(=O)c(F)cn(Cc2nc3ccccc3n2CCCCCCCCCCCC)c1=O | > 512 | 512 (≈ 858 µM) | 512 (≈ 858 µM) | 512 (≈ 858 µM) | 512 (≈ 858 µM) | 256 (≈ 429 µM) | > 512 | 32 (≈ 53.6 µM) | 512 (≈ 858 µM) | 512 (≈ 858 µM) | 256 (≈ 429 µM) | > 512 | –
O=c1[nH]c(=O)n(Cc2nc3cc(F)ccc3[nH]2)cc1F | 8 (≈ 28.8 µM) | 16 (≈ 57.5 µM) | 32 (≈ 115 µM) | 16 (≈ 57.5 µM) | 32 (≈ 115 µM) | 128 (≈ 460 µM) | 16 (≈ 57.5 µM) | 128 (≈ 460 µM) | 128 (≈ 460 µM) | 128 (≈ 460 µM) | 2 (≈ 7.19 µM) | 8 (≈ 28.8 µM) | –
O=c1c(F)cn(Cc2nc3ccccc3n2Cc2ccc(Cl)cc2)c(=O)n1Cc1ccc(Cl)cc1 | > 512 | > 512 | > 512 | > 512 | 512 (≈ 1010 µM) | > 512 | > 512 | > 512 | > 512 | > 512 | 4 (≈ 7.85 µM) | > 512 | –
CCCn1c(Cn2cc(F)c(=O)[nH]c2=O)nc2ccccc21 | 8 (≈ 26.5 µM) | 64 (≈ 212 µM) | 64 (≈ 212 µM) | 16 (≈ 52.9 µM) | 64 (≈ 212 µM) | 64 (≈ 212 µM) | 16 (≈ 52.9 µM) | 16 (≈ 52.9 µM) | 32 (≈ 106 µM) | 16 (≈ 52.9 µM) | 2 (≈ 6.62 µM) | 16 (≈ 52.9 µM) | –
O=c1[nH]c(=O)n(Cc2nc3ccccc3[nH]2)cc1F | 64 (≈ 246 µM) | 16 (≈ 61.5 µM) | 64 (≈ 246 µM) | 64 (≈ 246 µM) | 32 (≈ 123 µM) | 32 (≈ 123 µM) | 128 (≈ 492 µM) | 64 (≈ 246 µM) | 128 (≈ 492 µM) | 64 (≈ 246 µM) | 32 (≈ 123 µM) | 128 (≈ 492 µM) | –
CCn1c(Cn2cc(F)c(=O)[nH]c2=O)nc2ccccc21 | 4 (≈ 13.9 µM) | 32 (≈ 111 µM) | 8 (≈ 27.8 µM) | 16 (≈ 55.5 µM) | 32 (≈ 111 µM) | 64 (≈ 222 µM) | 16 (≈ 55.5 µM) | 16 (≈ 55.5 µM) | 32 (≈ 111 µM) | 64 (≈ 222 µM) | 2 (≈ 6.94 µM) | 16 (≈ 55.5 µM) | 4
OC(Cn1cncn1)(Cn1cncn1)c1ccc(F)cc1F [FLUCONAZOLE] | 16 (≈ 52.2 µM) | – | – | – | – | – | – | 4 (≈ 13.1 µM) | 256 (≈ 836 µM) | – | 1 (≈ 3.27 µM) | – | –
O=c1c(F)cn(Cc2nc3ccccc3n2Cc2ccccc2F)c(=O)n1Cc1ccccc1F | 128 (≈ 269 µM) | 512 (≈ 1070 µM) | 128 (≈ 269 µM) | 512 (≈ 1070 µM) | 512 (≈ 1070 µM) | 128 (≈ 269 µM) | 512 (≈ 1070 µM) | 512 (≈ 1070 µM) | > 512 | 128 (≈ 269 µM) | > 512 | 16 (≈ 33.6 µM) | –
O=c1c(F)cn(Cc2nc3ccccc3n2Cc2ccc(F)cc2)c(=O)n1Cc1ccc(F)cc1 | > 512 | > 512 | > 512 | > 512 | 512 (≈ 1070 µM) | > 512 | 512 (≈ 1070 µM) | > 512 | 512 (≈ 1070 µM) | > 512 | > 512 | > 512 | –
CCn1c(=O)c(F)cn(Cc2nc3ccccc3n2CC)c1=O | 32 (≈ 101 µM) | 32 (≈ 101 µM) | 32 (≈ 101 µM) | 32 (≈ 101 µM) | 64 (≈ 202 µM) | 16 (≈ 50.6 µM) | 64 (≈ 202 µM) | 32 (≈ 101 µM) | 64 (≈ 202 µM) | 32 (≈ 101 µM) | 64 (≈ 202 µM) | 32 (≈ 101 µM) | –
